Data from US20260272902A1, “C[…] ACID SALT FORM OF A CCR6 ANTAGONIST” (Idorsia Pharmaceuticals Ltd, priority 2022, published 2026).

Assay: Gravimetric vapor sorption (GVS) analysis / hygroscopicity
Format: physicochemical
Conditions: GVS at 25° C., FIG. 4
Procedure: Gravimetric vapor sorption analysis was performed with SPS 100n (ProUmid GmbH & Co. KG). An appropriate amount of the sample was placed into a tared aluminum pan without any pre-treatment. The analysis was run at a temperature of 25° C. with the following humidity program: 40%-0%-95%-40% in steps of 5% with maximum equilibration time of 24 h at each step. Analyzing software was ProUmid Excel template #SPS_4_3_23_E2010_drycorr.xltm.

## 2-(3-{5-[(R)-(1,3-dimethyl-azetidin-3-yl)-hydroxy-(4-isopropyl-phenyl)-methyl]-pyridin-3-yl}-[1,2,4]oxadiazol-5-yl)-propan-2-ol adipic acid salt
  Hygroscopicity classification acc. to Eur. Phar.: is classified as non-hygroscopic acc. to Eur. Phar.
Between 40% and 80% RH
  Hygroscopicity: water uptake: Less than 0.1% water uptake between 40% and 80% RH. Sample
